Converted amounts (≈) assume the structure as drawn. The source made the active and inactive calls. No cut-off for these calls is given here.
Key:
Escherichia coli [1] = test: Antibacterial activity against Escherichia coli TG-1 transfected with Klebsiella pneumoniae full-length NDM-1 beta lactamase gene incubated in presence of meropenem; assay type: functional
Escherichia coli [2] = test: Synergistic antibacterial activity against Escherichia coli TG-1 transfected with Klebsiella pneumoniae full-length NDM-1 beta lactamase gene assessed as fractional inhibitory concentration index in presence of meropenem; assay type: functional
Escherichia coli [3] = test: Antibacterial activity against Escherichia coli TG-1 transfected with Klebsiella pneumoniae full-length NDM-1 beta-lactamase gene; assay type: functional
Escherichia coli [4] = test: Synergistic antibacterial activity against Escherichia coli BJE-4 expressing NDM-1 gene assessed as fractional inhibitory concentration index in presence of meropenem; assay type: functional
Escherichia coli [5] = test: Antibacterial activity against Escherichia coli BJE-4 expressing NDM-1 gene in presence of meropenem; assay type: functional
Escherichia coli [6] = test: Antibacterial activity against Escherichia coli BJE-4 expressing NDM-1 gene; assay type: functional
HEK-293T = test: Cytotoxicity against HEK293T cells assessed as reduction in cell viability at 8 to 64 ug/ml incubated for 48 hrs by MTT assay; assay type: toxicity, cell-based; conditions: human, dose 8-64 µg/ml
[7] = molecular target: Metallo-beta-lactamase type 2 (Bacteria, UniProt C7C422); test: Inhibition of NDM-1 (unknown origin) using nitrocefin as substrate incubated for 15 to 60 mins by absorption based analysis
Chain of Metallo-beta-lactamase type 2 (C7C422 whole entry): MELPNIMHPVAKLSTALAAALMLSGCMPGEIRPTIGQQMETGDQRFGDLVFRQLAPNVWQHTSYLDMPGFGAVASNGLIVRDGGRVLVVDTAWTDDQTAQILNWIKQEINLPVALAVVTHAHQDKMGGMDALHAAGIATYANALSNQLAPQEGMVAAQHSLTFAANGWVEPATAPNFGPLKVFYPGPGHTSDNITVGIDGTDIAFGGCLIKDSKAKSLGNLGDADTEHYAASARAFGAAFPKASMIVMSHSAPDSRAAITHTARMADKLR

Escherichia coli [8] = test: Antibacterial activity against Escherichia coli producing NDM-1, CTX-M-15 and SHV-12 beta lactamases; assay type: functional
Klebsiella pneumoniae = test: Antibacterial activity against Klebsiella pneumoniae producing NDM-1, KPC-2 and SHV-12 beta-lactamases; assay type: functional
Caco-2 = test: Antibacterial activity against Salmonella lomita SL131 infected in human Caco-2 cells assessed as reduction in bacterial survival rate at 64 ug/ml incubated for 6 hrs by agar dilution method; assay type: functional, cell-based; conditions: Salmonella enterica subsp. enterica serovar Lomita, dose 64.0 µg/ml
Enterobacter cloacae [9] = test: Antibacterial activity against Enterobacter cloacae producing NDM-1, CTX-M-14 and TEM-1 beta-lactamases; assay type: functional
Escherichia coli [10] = test: Antibacterial activity against Escherichia coli producing NDM-1 and CTX-M-15 beta lactamases; assay type: functional
Enterobacter cloacae [11] = test: Antibacterial activity against Enterobacter cloacae producing NDM-1, TEM-1 and SHV-12 beta-lactamases; assay type: functional
Enterobacter cloacae [12] = test: Antibacterial activity against Enterobacter cloacae producing NDM-1, IMP-4 and TEM-1 beta-lactamases; assay type: functional
Citrobacter freundii [13] = test: Antibacterial activity against Citrobacter freundii producing NDM-1 and SHV-12 beta-lactamases; assay type: functional
Escherichia coli [14] = test: Antibacterial activity against Escherichia coli TG-1; assay type: functional
Citrobacter freundii [15] = test: Antibacterial activity against Citrobacter freundii producing NDM-1, CTX-M-3 and KPC-2 beta-lactamases; assay type: functional

SMILES | MIC (Escherichia coli [1]) [µg/mL] | fractional inhibitory concentration index (FICI) (Escherichia coli [2]) | MIC (Escherichia coli [3]) [µg/mL] | fractional inhibitory concentration index (FICI) (Escherichia coli [4]) | MIC (Escherichia coli [5]) [µg/mL] | MIC (Escherichia coli [6]) [µg/mL] | Activity (HEK-293T) | IC50 [7] [µM] | MIC (Escherichia coli [8]) [µg/mL] | MIC (Klebsiella pneumoniae) [µg/mL] | Activity (Caco-2) | MIC (Enterobacter cloacae [9]) [µg/mL] | MIC (Escherichia coli [10]) [µg/mL] | MIC (Enterobacter cloacae [11]) [µg/mL] | MIC (Enterobacter cloacae [12]) [µg/mL] | MIC (Citrobacter freundii [13]) [µg/mL] | MIC (Escherichia coli [14]) [µg/mL] | MIC (Citrobacter freundii [15]) [µg/mL]
CN(C)S(=O)(=O)NCCn1[se]c2ccccc2c1=O | ≤ 8 | 0.25 | > 64 | 0.625 | 8 | > 16 | – | – | – | – | – | – | – | – | – | – | – | –
COC(=O)c1ccc(-n2[se]c3ccccc3c2=O)cc1OC | ≤ 8 | 0.25 | > 64 | 0.313 | 4 | > 16 | Non-Toxic | 7.81 | – | – | – | – | – | – | – | – | – | –
CSc1nnc(-n2[se]c3ccccc3c2=O)s1 | ≤ 8 | 0.25 | > 64 | 0.625 | 8 | > 16 | – | 8.8 | – | – | – | – | – | – | – | – | – | –
Cc1ccc(S(=O)(=O)NCCn2[se]c3ccccc3c2=O)cc1 | ≤ 8 | 0.25 | > 64 | 0.625 | 8 | > 16 | – | – | – | – | – | – | – | – | – | – | – | –
CC(C)(C)OC(=O)NCCn1[se]c2ccccc2c1=O | 16 | 0.5 | > 64 | 0.625 | 8 | > 16 | – | 1.26 | – | – | – | – | – | – | – | – | – | –
CC(C)(C)OC(=O)NCCCCn1[se]c2ccccc2c1=O | 32 | 1 | > 64 | 0.625 | 8 | > 16 | – | – | – | – | – | – | – | – | – | – | – | –
COC(=O)c1cccc(-n2[se]c3ccccc3c2=O)c1 | ≤ 8 | 0.25 | > 64 | 0.625 | 8 | > 16 | – | 3.63 | – | – | – | – | – | – | – | – | – | –
C[C@@H](O)[C@H]1C(=O)N2C(C(=O)O)=C(S[C@@H]3CN[C@H](C(=O)N(C)C)C3)[C@H](C)[C@H]12 [MEROPENEM] | – | – | > 64 | – | – | > 16 | – | – | > 64 | > 64 | inactive | 64 (≈ 167 µM) | > 64 | 64 (≈ 167 µM) | 64 (≈ 167 µM) | 64 (≈ 167 µM) | 0.5 (≈ 1.3 µM) | > 64
O=c1c2ccccc2[se]n1CCNS(=O)(=O)c1ccc(F)cc1 | ≤ 8 | 0.25 | > 64 | 0.625 | 8 | > 16 | – | – | – | – | – | – | – | – | – | – | – | –
COC(=O)c1ccc(-n2[se]c3ccccc3c2=O)cc1C | 16 | 0.5 | > 64 | 0.625 | 8 | > 16 | – | – | – | – | – | – | – | – | – | – | – | –
O=c1c2ccccc2[se]n1-c1ccc(-c2ccccc2)cc1 | 64 | 2 | 64 (≈ 183 µM) | 0.625 | 8 | > 16 | – | – | – | – | – | – | – | – | – | – | – | –
CC(C)(C)OC(=O)N1CC[C@@H](n2[se]c3ccccc3c2=O)C1 | ≤ 8 | 0.25 | > 64 | 0.625 | 8 | > 16 | – | – | – | – | – | – | – | – | – | – | – | –

Reference: ChEMBL document CHEMBL5532748, “Design, synthesis and antibacterial activity evaluation of ebselen derivatives in NDM-1 producing bacteria” (RSC Med Chem, 2024)
